Counter-ions that a name gives are not always drawn. Like-named read-outs stand apart in the source and are kept apart here.
Legend:
NaV1.5 [1] = target: T1, NaV1.5 (Homo sapiens (Human), UniProt Q14524); experiment: in vitro; conditions: pH 7.4
NaV1.1 [2] = target: T2, NaV1.1 (Homo sapiens (Human), UniProt P35498); experiment: Sodium Influx Assay (Flux), NaV1.1; assay type: cell-based; conditions: Trex HEK293 cells, ANG2 dye; arithmetic mean
NaV1.6 [3] = target: T3, NaV1.6 (Homo sapiens (Human), UniProt Q9UQD0); experiment: Electrophysiological Assay (EP), patch voltage clamp, NaV1.6; assay type: cell-based; conditions: HEK-293 cells, whole-cell patch clamp, inactivated state; arithmetic mean
T3 sequence (Q9UQD0 whole entry): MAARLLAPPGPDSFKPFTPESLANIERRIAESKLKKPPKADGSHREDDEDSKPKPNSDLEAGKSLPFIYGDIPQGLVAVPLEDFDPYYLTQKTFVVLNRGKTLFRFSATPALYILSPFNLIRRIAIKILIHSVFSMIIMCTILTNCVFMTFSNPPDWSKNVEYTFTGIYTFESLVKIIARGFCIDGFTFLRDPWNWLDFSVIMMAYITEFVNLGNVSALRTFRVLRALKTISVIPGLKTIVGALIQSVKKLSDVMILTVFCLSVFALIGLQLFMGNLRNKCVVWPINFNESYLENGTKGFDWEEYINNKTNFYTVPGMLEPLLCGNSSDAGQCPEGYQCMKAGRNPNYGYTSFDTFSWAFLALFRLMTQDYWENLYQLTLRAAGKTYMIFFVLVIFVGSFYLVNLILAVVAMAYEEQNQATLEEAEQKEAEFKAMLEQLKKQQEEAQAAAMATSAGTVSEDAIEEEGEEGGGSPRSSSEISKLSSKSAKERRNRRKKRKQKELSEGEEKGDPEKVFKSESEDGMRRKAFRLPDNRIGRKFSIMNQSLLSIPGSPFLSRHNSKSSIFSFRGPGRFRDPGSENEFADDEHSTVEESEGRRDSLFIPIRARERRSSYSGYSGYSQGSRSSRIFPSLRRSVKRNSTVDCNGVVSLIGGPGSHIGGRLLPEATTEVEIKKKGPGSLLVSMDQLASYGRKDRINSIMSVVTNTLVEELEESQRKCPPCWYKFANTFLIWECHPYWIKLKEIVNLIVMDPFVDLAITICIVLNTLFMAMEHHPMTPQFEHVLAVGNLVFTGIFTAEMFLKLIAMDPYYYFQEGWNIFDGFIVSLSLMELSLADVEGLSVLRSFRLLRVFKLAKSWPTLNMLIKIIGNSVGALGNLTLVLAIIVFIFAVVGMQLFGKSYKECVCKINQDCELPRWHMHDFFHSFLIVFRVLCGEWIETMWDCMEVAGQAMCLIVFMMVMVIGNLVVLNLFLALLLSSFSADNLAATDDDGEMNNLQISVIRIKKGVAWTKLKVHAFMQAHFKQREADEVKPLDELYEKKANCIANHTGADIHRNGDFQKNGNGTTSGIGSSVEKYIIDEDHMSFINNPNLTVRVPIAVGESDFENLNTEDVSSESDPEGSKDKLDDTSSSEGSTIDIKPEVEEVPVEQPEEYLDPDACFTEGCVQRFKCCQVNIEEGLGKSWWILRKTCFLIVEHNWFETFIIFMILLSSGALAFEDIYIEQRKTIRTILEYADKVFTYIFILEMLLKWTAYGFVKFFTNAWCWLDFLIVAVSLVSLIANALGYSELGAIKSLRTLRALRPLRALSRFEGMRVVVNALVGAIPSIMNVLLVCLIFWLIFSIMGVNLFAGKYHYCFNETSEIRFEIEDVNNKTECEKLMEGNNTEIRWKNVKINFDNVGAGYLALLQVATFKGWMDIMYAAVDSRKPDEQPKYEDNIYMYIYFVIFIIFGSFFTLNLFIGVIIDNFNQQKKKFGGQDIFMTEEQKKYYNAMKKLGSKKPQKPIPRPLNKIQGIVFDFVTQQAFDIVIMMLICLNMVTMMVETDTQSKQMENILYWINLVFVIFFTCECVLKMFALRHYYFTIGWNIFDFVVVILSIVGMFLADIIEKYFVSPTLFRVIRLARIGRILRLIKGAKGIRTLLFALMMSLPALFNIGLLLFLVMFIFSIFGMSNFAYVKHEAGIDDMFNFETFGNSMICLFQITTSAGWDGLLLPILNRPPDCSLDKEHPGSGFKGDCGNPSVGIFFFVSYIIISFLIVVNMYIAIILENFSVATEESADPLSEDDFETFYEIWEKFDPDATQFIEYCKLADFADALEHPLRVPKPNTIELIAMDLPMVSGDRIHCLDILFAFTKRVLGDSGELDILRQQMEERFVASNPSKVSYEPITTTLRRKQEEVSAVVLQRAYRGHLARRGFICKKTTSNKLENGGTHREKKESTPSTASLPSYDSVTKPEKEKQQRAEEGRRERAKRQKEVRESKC

NaV1.5 [4] = target: T1, NaV1.5; experiment: Electrophysiological Assay (EP), patch voltage clamp, NaV1.5; assay type: cell-based; conditions: HEK-293 cells, whole-cell patch clamp, inactivated state; arithmetic mean
Protocol: Sodium currents were measured using the patch clamp technique in the whole-cell configuration using either a PatchXpress automated voltage clamp or manually using an Axopatch 200B (Axon Instruments) or Model 2400 (A-M systems) amplifier.
In some studies, the external sodium was reduced by equimolar replacement with choline. […] All recordings were performed at ambient temperature in a bath chamber with a volume of 150 μL. Control sodium currents were measured in 0.5% DMSO. Controls and representative compounds of the invention were applied to the recording chamber through a 4-pinch or 8-pinch valve bath perfusion system manufactured by ALA Scientific Instruments.
Series resistance compensation was applied (60-80%). […] All statistics in this study are given as mean±SD.
The membrane potential was maintained at a voltage where inactivation of the channel is complete. The voltage is then stepped back to a very negative (Vhold=−150 mV) voltage for 20 ms and then a test pulse is applied to quantify the compound block. […] The percent decrease in sodium current following wash-on of compound was taken as the percent block of sodium channels.

NaV1.1 [5] = target: T2, NaV1.1; experiment: Electrophysiological Assay (EP), patch voltage clamp, NaV1.1; assay type: cell-based; conditions: HEK-293 cells, whole-cell patch clamp, inactivated state; arithmetic mean
NaV1.6 [6] = target: T3, NaV1.6; experiment: Sodium Influx Assay (Flux), NaV1.6; conditions: read-out: Flux NaV1.6 IC50; Trex HEK293 cells, ANG2 dye; arithmetic mean
NaV1.5 [7] = target: T1, NaV1.5; experiment: Sodium Influx Assay (Flux), NaV1.5; conditions: read-out: Flux NaV1.5 IC50; Trex HEK293 cells, ANG2 dye; arithmetic mean
NaV1.5 [8] = target: T1, NaV1.5

T1 sequence (Q14524 other isoform, or with tags, fused parts or gaps): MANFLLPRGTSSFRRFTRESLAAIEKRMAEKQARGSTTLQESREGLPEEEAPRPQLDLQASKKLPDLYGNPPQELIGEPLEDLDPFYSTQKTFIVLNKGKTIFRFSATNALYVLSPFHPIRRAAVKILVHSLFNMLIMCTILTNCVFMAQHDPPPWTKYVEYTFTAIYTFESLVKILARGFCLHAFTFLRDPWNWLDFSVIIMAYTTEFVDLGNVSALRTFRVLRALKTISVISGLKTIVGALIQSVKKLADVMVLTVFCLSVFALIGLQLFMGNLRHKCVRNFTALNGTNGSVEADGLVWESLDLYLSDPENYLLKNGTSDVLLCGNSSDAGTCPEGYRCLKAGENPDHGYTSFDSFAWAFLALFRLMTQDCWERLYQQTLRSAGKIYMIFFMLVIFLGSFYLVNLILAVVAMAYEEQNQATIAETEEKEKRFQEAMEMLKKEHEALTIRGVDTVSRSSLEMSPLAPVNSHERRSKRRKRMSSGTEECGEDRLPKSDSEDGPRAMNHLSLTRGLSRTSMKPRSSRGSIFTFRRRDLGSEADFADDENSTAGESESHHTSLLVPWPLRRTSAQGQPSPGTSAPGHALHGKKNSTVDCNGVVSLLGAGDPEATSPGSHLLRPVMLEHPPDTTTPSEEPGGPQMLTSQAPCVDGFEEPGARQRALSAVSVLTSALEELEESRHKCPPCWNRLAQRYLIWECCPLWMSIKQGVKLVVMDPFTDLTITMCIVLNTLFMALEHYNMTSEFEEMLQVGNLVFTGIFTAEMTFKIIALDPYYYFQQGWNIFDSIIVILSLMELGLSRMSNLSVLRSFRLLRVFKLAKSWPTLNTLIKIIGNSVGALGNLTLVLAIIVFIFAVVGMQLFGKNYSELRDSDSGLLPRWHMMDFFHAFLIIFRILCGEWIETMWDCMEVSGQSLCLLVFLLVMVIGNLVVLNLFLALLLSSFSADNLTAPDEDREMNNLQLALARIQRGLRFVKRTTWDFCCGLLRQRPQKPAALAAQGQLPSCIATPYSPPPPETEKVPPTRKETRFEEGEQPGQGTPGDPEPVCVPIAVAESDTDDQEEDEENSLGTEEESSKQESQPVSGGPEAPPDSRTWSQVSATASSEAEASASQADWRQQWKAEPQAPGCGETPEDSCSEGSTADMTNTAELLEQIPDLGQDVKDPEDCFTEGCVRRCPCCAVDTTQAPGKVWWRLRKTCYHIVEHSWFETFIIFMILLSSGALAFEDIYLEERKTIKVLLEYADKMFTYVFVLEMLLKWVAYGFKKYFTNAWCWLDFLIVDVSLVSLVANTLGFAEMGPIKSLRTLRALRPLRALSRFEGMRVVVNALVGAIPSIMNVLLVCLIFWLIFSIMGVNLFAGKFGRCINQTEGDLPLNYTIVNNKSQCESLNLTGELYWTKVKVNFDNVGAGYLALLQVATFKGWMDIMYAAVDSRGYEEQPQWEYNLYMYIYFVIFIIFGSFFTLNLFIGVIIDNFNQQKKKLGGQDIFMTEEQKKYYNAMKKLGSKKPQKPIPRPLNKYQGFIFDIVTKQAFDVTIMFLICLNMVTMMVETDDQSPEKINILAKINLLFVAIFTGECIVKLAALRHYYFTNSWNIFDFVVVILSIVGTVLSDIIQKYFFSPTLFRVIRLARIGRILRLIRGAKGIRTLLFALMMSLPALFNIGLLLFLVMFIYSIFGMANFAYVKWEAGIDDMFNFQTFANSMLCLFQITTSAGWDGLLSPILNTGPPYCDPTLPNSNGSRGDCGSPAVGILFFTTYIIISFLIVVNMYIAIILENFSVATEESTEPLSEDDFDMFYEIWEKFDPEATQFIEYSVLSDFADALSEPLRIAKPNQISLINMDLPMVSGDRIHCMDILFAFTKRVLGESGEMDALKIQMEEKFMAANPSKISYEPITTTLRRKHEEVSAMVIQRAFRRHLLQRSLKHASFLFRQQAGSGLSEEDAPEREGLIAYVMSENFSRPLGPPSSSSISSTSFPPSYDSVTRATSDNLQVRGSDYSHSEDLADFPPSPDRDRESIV

Compound | IC50 at 1 h (NaV1.5 [1]) | IC50 (NaV1.1 [2]) | IC50 (NaV1.6 [3]) | IC50 (NaV1.5 [4]) | IC50 (NaV1.1 [5]) | IC50 (NaV1.6 [6]) | IC50 (NaV1.5 [7]) | IC50 (NaV1.5 [8])
C[C@@H]1[C@H](N(C)c2cc(F)c(S(=O)(=O)Nc3cscn3)cc2Cl)CCN1Cc1ccccc1 (racemic) [Example 309, rac-4-(((2R,3R)-1-benzyl-2-methylpyrrolidin-3-yl)(methyl)amino)-5-chloro-2-fluoro-N-(thiazol-4-yl)benzenesulfonamide] | 7.35 µM |  |  |  |  |  |  | 
CN(c1ccc(S(=O)(=O)Nc2ncns2)cc1Cl)[C@H]1CCN(Cc2ccccc2)C1 [Example 29, (S)-4-((1-benzylpyrrolidin-3-yl)(methyl)amino)-3-chloro-N-(1,2,4-thiadiazol-5-yl)benzenesulfonamide hydrochloride salt] |  | > 30 µM | 0.06 µM | > 10 µM | > 10 µM | 0.244 µM | 29.5 µM | 
CN(c1cc(F)c(S(=O)(=O)Nc2cscn2)cc1Cl)[C@H]1CCN(Cc2ccccc2)C1 [Example 38, (S)-4-((1-benzylpyrrolidin-3-yl)(methyl)amino)-5-chloro-2-fluoro-N-(thiazol-4-yl)benzenesulfonamide 2,2,2-trifluoroacetate] |  | 17.9 µM | 0.803 µM | > 30 µM | > 10 µM | 1.94 µM | 26.3 µM | 
O=S(=O)(Nc1nccs1)c1ccc(N[C@@H]2CCN(Cc3ccccc3F)C2)c(Cl)c1 [Example 71, (R)-3-chloro-4-((1-(2-fluorobenzyl)pyrrolidin-3-yl)amino)-N-(thiazol-2-yl)benzenesulfonamide] |  | 3.35 µM |  | 0.863 µM |  | 1.26 µM | 9.27 µM | 
Cc1c(N(C)[C@H]2CCN(Cc3ccccc3)C2)cc(F)c(S(=O)(=O)Nc2cscn2)c1F [Example 103, (S)-4-((1-benzylpyrrolidin-3-yl)(methyl)amino)-2,6-difluoro-3-methyl-N-(thiazol-4-yl)benzenesulfonamide 2,2,2-trifluoroacetate] |  | 28.5 µM | 0.017 µM | > 10 µM | 40.9 µM | 0.061 µM | 28.2 µM | 
CN(c1ccc(S(=O)(=O)Nc2cscn2)cc1Cl)[C@H]1CCN(Cc2cc(Cl)ccc2F)C1 [Example 254, (S)-3-chloro-4-((1-(5-chloro-2-fluorobenzyl)pyrrolidin-3-yl)(methyl)amino)-N-(thiazol-4-yl)benzenesulfonamide formate] |  | 2.32 µM |  | 17 µM |  | 1.16 µM | 0.962 µM | 
Cc1c(N(C)[C@H]2CCN(Cc3ccccc3)C2)cc(F)c(S(=O)(=O)Nc2cccc(F)n2)c1F [Example 298, (S)-4-((1-benzylpyrrolidin-3-yl)(methyl)amino)-2,6-difluoro-N-(6-fluoropyridin-2-yl)-3-methylbenzenesulfonamide formate] |  | 26 µM | 0.043 µM | > 10 µM | > 10 µM | 0.079 µM | > 30 µM | 
O=S(=O)(Nc1cscn1)c1ccc(O[C@@H]2C[C@H]3CC[C@@H](C2)N3Cc2ccccc2)c(Cl)c1 [Example 318, 4-(((1R,3s,5S)-8-benzyl-8-azabicyclo[3.2.1]octan-3-yl)oxy)-3-chloro-N-(thiazol-4-yl)benzenesulfonamide] |  | 13.8 µM | 1.15 µM |  | > 10 µM | 5.46 µM |  | 17.4 µM
